Data as given in US20230414626A1, “INDUCTION OF FERROPTOSIS FOR CANCER THERAPY” (Memorial Sloan Kettering Cancer Center, priority 2020, published 2023).

Assays:
[1] = tested on: panel of human cancer cell lines with defined genetic mutations; assay: Sensitivity of cancer cell line panel to RSL3 (cell death, Sytox Green); assay type: cell-based; conditions: cancer cells carrying PIK3CA activating mutation or PTEN deletion; 24-h treatment
Description: FIG. 1 A-D. Oncogenic activation of the PI3K-AKT-mTOR signaling pathway confers resistance to ferroptosis. (A) Genetic background of the analyzed cancer cell lines and their sensitivity to RSL3. (B) Cells were seeded in 96-well plate, 2×10^4 cells per well and incubated overnight. Cell death was induced by 24-h treatment of RSL3 with indicated concentrations. Cell death were measured by Sytox Green staining, as detailed in Methods. (C) Indicated protein components in the PI3K-AKT pathway were detected by western blot in indicated cell types. […] Cell death was measured. […]
To investigate the functional interplay between ferroptosis and signaling pathways frequently mutated in cancer, we analyzed a panel of human cancer cell lines with defined genetic mutations. […]
Cells were seeded in plates at appropriate cell density and incubated overnight at 37° C. containing 5% C02, and then subjected to treatments as described in individual experiments. […] Culture plates were read by Cytation 5 at indicated time points. Percentage of cell death was calculated as Sytox Green-positive cell number over total cell number. For 3D spheroids, cell viability was determined a commercially available cell viability assay (Promega, Madison, WI, USA) following the manufacturer's instructions. […]

[2] = tested on: HT1080 cells; assay: Cell death quantification, PI3K-AKT-mTOR wild-type cells; assay type: cell-based, human; conditions: HT1080, wild-type PI3K-AKT-mTOR pathway; RSL3 0.1 μM; Torin 1 μM; CCI-779 0.5 μM
Description: (§1) FIG. 7 A-J. PI3K-AKT-mTOR signaling regulates ferroptosis sensitivity. (A) Cells were treated as indicated. GDC-0941, 2 μM; MK-2206, 2 μM; RSL3, 1 μM; Fer-1, 1 μM. Lipid peroxidation was measured. (B) Cells were treated with indicated conditions. Torin, 1 μM; RSL3, 1 μM for MDA-MB-453 cells and 0.5 μM for BT474 cells; Fer-1, 1 μM. Cell death was measured. (C) Cells were treated with indicated conditions. RSL3, 10 μM for MCF cells and PC-3 cells, 5 μM for T47D cells, 1 μM for HepG2 cells; Torin, 1 μM; CCI-779, 0.5 μM. (D) Cells were treated as indicated. CCI-779, 0.5 μM; Torin, 1 μM; Fer-1, 1 μM. Cell death was staining by propidium iodide (PI) (red) or Sytox Green (green) (scale bar, 100 μm). […] Cell death was measured. […]
(§2) Cells were seeded in plates at appropriate cell density and incubated overnight at 37° C. containing 5% C02, and then subjected to treatments as described in individual experiments. […] Culture plates were read by Cytation 5 at indicated time points. Percentage of cell death was calculated as Sytox Green-positive cell number over total cell number. For 3D spheroids, cell viability was determined a commercially available cell viability assay (Promega, Madison, WI, USA) following the manufacturer's instructions. Viability was calculated by normalizing ATP levels of samples to that of negative controls (spheroids in normal full media without treatment).

[3] = tested on: MDA-MB-231 cells; assay: as above; assay type: cell-based, human; conditions: MDA-MB-231, wild-type PI3K-AKT-mTOR pathway; RSL3 0.25 μM; Torin 1 μM; CCI-779 0.5 μM
Description: as §1, §2

[4] = tested on: mTORC1 activity; assay: Western blot of S6K phosphorylation (pT389 S6K); assay type: cell-based, human; conditions: RSL3 0.25 μM
Description: FIG. 7 A-J. PI3K-AKT-mTOR signaling regulates ferroptosis sensitivity. (A) Cells were treated as indicated. GDC-0941, 2 μM; MK-2206, 2 μM; RSL3, 1 μM; Fer-1, 1 μM. Lipid peroxidation was measured. (B) Cells were treated with indicated conditions. Torin, 1 μM; RSL3, 1 μM for MDA-MB-453 cells and 0.5 μM for BT474 cells; Fer-1, 1 μM. Cell death was measured. (C) Cells were treated with indicated conditions. RSL3, 10 μM for MCF cells and PC-3 cells, 5 μM for T47D cells, 1 μM for HepG2 cells; Torin, 1 μM; CCI-779, 0.5 μM. (D) Cells were treated as indicated. CCI-779, 0.5 μM; Torin, 1 μM; Fer-1, 1 μM. Cell death was staining by propidium iodide (PI) (red) or Sytox Green (green) (scale bar, 100 μm). (E-F) 3D spheroids for MDA-MB-453 cells and MCF7 cells were treated as indicated. CCI-779, 0.5 μM; RSL3, 1 μM for MDA-MB-453 cells and 5 μM for MCF7 cells; Fer-1, 1 μM. Top panels, cell death staining (scale bar, 100 m). Bottom panels, cell viability. (G) MDA-MB-453 cells were treated as indicated for 24 h. RSL3, 1 μM; CCI-779, 0.5 μM; GDC-0941, 2 μM; MK-2206, 2 μM; Dabrafenib, 2 μM; SCH772984, 2 μM; Fer-1, 1 μM. (H) Western blot was performed to detect RPTOR and RICTOR knockdown efficiency. (I) HT1080 cells and MDA-MB-231 cells (both with wild-type PI3K-AKT-mTOR pathway) were treated as indicated. RSL3, 0.1 μM for HT1080 and 0.25 μM for MDA-MB-231; Torin, 1 μM; CCI-779, 0.5 μM; Fer-1, 1 μM. Cell death was measured. (J) Two lines of PI3K-AKT-mTOR pathway wild-type cells (HT1080 and MDA-MB-231) and two lines of cells harboring activating mutation of the pathway (BT474 and MDA-MB-453) were treated as indicated. RSL3, 0.25 μM; Fer-1, 1 μM. Western blot was performed to detect the level of pT389 S6K.
Cell lysates were resolved on SDS-PAGE gels and transferred to a nitrocellulose membranes. The membranes were incubated in 5% skim milk for 1 hour at room temperature and then incubated with primary antibodies diluted in blocking buffer at 4° C. overnight. […]

[5] = tested on: BT474 cells; assay: Cell death quantification (Sytox Green), RSL3-induced ferroptosis; assay type: cell-based, human; conditions: fatty acid 0.5 mM, RSL3 0.5 μM, CCI-779 0.5 μM
Description: (§3) FIG. 1 A-D. Oncogenic activation of the PI3K-AKT-mTOR signaling pathway confers resistance to ferroptosis. (A) Genetic background of the analyzed cancer cell lines and their sensitivity to RSL3. (B) Cells were seeded in 96-well plate, 2×10^4 cells per well and incubated overnight. Cell death was induced by 24-h treatment of RSL3 with indicated concentrations. Cell death were measured by Sytox Green staining, as detailed in Methods. (C) Indicated protein components in the PI3K-AKT pathway were detected by western blot in indicated cell types. (D) Cells were treated with or without PI3K inhibitor GDC-0941 (2 μM), AKT inhibitor MK-2206 (2 μM), RSL3 (1 μM), or ferroptosis inhibitor Ferrostatin-1 (Fer-1, 1 μM) as indicated for 12 h (BT474) or 24 h (MDA-MB-453). Cell death was measured. Indicators for P values (same in all other figures): ****, P≤0.0001; *** P≤0.001; **, P≤0.01; *, P≤0.05; ns, P>0.05
(§4) FIG. 2 A-E. mTORC1, instead of mTORC2, suppresses ferroptosis. (A) MDA-MB-453 and BT474 were treated with CCI-779 (0.5 μM), RSL3 (1 μM for MDA-MB-453 cells and 0.5 μM for BT474 cells), and Fer-1 (1 μM) as indicated. (B) Cells were seeded in 6-well plate, 4×10^5 cells per well and incubated overnight. MDA-MB-453 and BT474 cells were treated as indicated. CCI-779, 0.5 μM; RSL3, 1 μM for MDA-MB-453 cells and 0.5 μM for BT474 cells; Fer-1, 1 μM. Cells were stained with 5 μM C1I-BODIPY followed by flow cytometry after 8 h-treatment. (C) 3D spheroids were treated as indicated. CCI-779, 0.5 μM; RSL3, 0.5 μM; Fer-1, 1 μM. Top panel, dead cells were stained by SYTOX Green (scale bar, 100 μm). Bottom panel, cell viability was assayed by measuring cellular ATP levels. (D) Cells expressing shRNAs targeting RPTOR or RICTOR were treated as indicated. CCI-779, 0.5 μM; RSL3, 0.5 μM; Fer-1, 1 μM. (E) Lipid peroxidation of samples as in panel D were measured.
(§5) FIG. 5 A-H. SREBP1 protects cells from ferroptosis through SCD1 activity. (A) The expression of SREBP1, and its targets SCD1, FASN, and ACACA, in control and SREBF1-sgRNA cells were detected by western blot. (B) The mRNA level of SREPF1 and its targets gene SCD were measured by RT-PCR. (C) Cells were pretreated with or without 5 μM CAY10566 overnight, and then subjected to the indicated treatments. RSL3, 0.5 μM for BT474 cells and 1 μM for MDA-MB-453 cells; CAY10566, 5 μM; Fer-1, 1 μM. (D) Cells expressing control or SCD-sgRNA were treated as indicated. RSL3, 1 μM for MDA-MB-453 cells and 0.5 μM for BT474 cells; Fer-1, 1 μM. (E) 3D spheroids derived from BT474 cells harboring control or SCD-sgRNA were treated as indicated. RSL3, 0.5 μM; CCI-779, 0.5 μM; Fer-1, 1 μM. Left, cell death staining (scale bar, 100 m). Right, cell viability. (F) SCD1 was overexpressed in BT474 cells and determined by western blot. Cells were treated as indicated. RSL3, 0.5 μM; CCI-779, 0.5 μM. (G) 3D spheroids derived from BT474 cells with control or SCD1 overexpression were treated as indicated. RSL3, 0.5 μM; CCI-779, 0.5 μM; Fer-1, 1 μM. Left, cell death staining (scale bar, 100 m). Right, cell viability. (H) Cells were treated as indicated. RSL3, 0.5 μM for BT474 and 1 μM for MDA-MB-453; CCI-779, 0.5 μM; Oleic acid (OA), 0.5 mM; stearic acid (SA), 0.5 mM.
(§6) FIG. 7 A-J. PI3K-AKT-mTOR signaling regulates ferroptosis sensitivity. (A) Cells were treated as indicated. GDC-0941, 2 μM; MK-2206, 2 μM; RSL3, 1 μM; Fer-1, 1 μM. Lipid peroxidation was measured. (B) Cells were treated with indicated conditions. Torin, 1 μM; RSL3, 1 μM for MDA-MB-453 cells and 0.5 μM for BT474 cells; Fer-1, 1 μM. Cell death was measured. (C) Cells were treated with indicated conditions. RSL3, 10 μM for MCF cells and PC-3 cells, 5 μM for T47D cells, 1 μM for HepG2 cells; Torin, 1 μM; CCI-779, 0.5 μM. (D) Cells were treated as indicated. CCI-779, 0.5 μM; Torin, 1 μM; Fer-1, 1 μM. Cell death was staining by propidium iodide (PI) (red) or Sytox Green (green) (scale bar, 100 μm). (E-F) 3D spheroids for MDA-MB-453 cells and MCF7 cells were treated as indicated. […]

[6] = tested on: MDA-MB-453 cells; assay: as above; assay type: cell-based, human; conditions: fatty acid 0.5 mM, RSL3 1 μM, CCI-779 0.5 μM
Description: as §3, §4, §5, §6

[7] = wild-type cells (HT1080 and MDA-MB-231), Fer-1 1 μM

Row | Structure (SMILES) | sensitivity to ferroptosis induction by RSL3 [1] | ferroptosis induction (cell death) [2] | ferroptosis induction (cell death) [3] | mTORC1 activity as measured by S6K phosphorylation ([4]; cells harboring pathway mutation (BT474 and MDA-MB-453)) | mTORC1 activity as measured by S6K phosphorylation [4, 7] | ferroptosis resistance upon treatment of CCI-779 plus RSL3 (fatty acid supplementation) [5] | ferroptosis resistance upon treatment of CCI-779 plus RSL3 (fatty acid supplementation) [6]
1 | COC(=O)c1ccc([C@@H]2c3[nH]c4ccccc4c3C[C@@H](C(=O)OC)N2C(=O)CCl)cc1 [RSL3] | more resistant | sufficient to induce ferroptosis | sufficient to induce ferroptosis | retained active mTORC1 | inhibited | – | –
2 | CCOC(=O)c1ccc(NC2CCCCC2)c(N)c1 [ferrostatin-1] | – | – | – | – | prevented RSL3-triggered inactivation of mTORC1 activity | – | –
3 | CCCCCCCC/C=C\CCCCCCCC(=O)O [oleate acid] | – | – | – | – | – | resulted in ferroptosis resistance | resulted in ferroptosis resistance
4 | CCCCCC/C=C\CCCCCCCC(=O)O [palmitoleic acid] | – | – | – | – | – | resulted in ferroptosis resistance | resulted in ferroptosis resistance
